≈ marks a conversion by molar mass, not a printed value.
What follows are compounds tested on Staphylococcus epidermidis (assay: Antibacterial activity against methicillin-resistant Staphylococcus epidermidis ATCC 51625 assessed as bacterial growth inhibition incubated for 18 to 24 hrs by NCCLS based assay). Conditions: time 18-24 hrs.
Type: functional
C=C[C@]1(C)C[C@@H](OC(=O)CSc2ncnc(N3CCOCC3)n2)[C@]2(C)[C@H](C)CC[C@]3(CCC(=O)[C@H]32)[C@@H](C)[C@@H]1O was tested, and the MIC was 0.125 µg/mL (≈ 0.224 µM). C=C[C@]1(C)C[C@@H](OC(=O)CSc2ncnc(N)n2)[C@]2(C)[C@H](C)CC[C@]3(CCC(=O)[C@H]32)[C@@H](C)[C@@H]1O was tested, and the MIC was 0.25 µg/mL (≈ 0.512 µM). With C=C[C@]1(C)C[C@@H](OC(=O)CSc2ncnc(NCC)n2)[C@]2(C)[C@H](C)CC[C@]3(CCC(=O)[C@H]32)[C@@H](C)[C@@H]1O the MIC was 0.125 µg/mL (≈ 0.242 µM). C=C[C@]1(C)C[C@@H](OC(=O)CSc2ncnc(OC3CCCC3)n2)[C@]2(C)[C@H](C)CC[C@]3(CCC(=O)[C@H]32)[C@@H](C)[C@@H]1O gave an MIC of 16 µg/mL (≈ 28.7 µM). C=C[C@]1(C)C[C@@H](OC(=O)CSc2ncnc(OC)n2)[C@]2(C)[C@H](C)CC[C@]3(CCC(=O)[C@H]32)[C@@H](C)[C@@H]1O showed an MIC of 0.25 µg/mL (≈ 0.496 µM). In the case of C=C[C@]1(C)C[C@@H](OC(=O)CSc2ncnc(NCCNC)n2)[C@]2(C)[C@H](C)CC[C@]3(CCC(=O)[C@H]32)[C@@H](C)[C@@H]1O, the MIC is reported as 0.25 µg/mL (≈ 0.458 µM).

The compounds below were run on Staphylococcus aureus (assay: Bactericidal activity against Staphylococcus aureus incubated for 24 hrs by time kill assay). Conditions: not given.
Type: functional, organism-based
For C=C[C@]1(C)C[C@@H](OC(=O)CSc2ncnc(N3CCOCC3)n2)[C@]2(C)[C@H](C)CC[C@]3(CCC(=O)[C@H]32)[C@@H](C)[C@@H]1O, the Activity was “Dose-Dependent Effect”.

What follows are compounds tested on Streptococcus agalactiae (assay: Antibacterial activity against Streptococcus agalactiae assessed as bacterial growth inhibition incubated for 18 to 24 hrs by NCCLS based assay). Conditions: time 18-24 hrs.
Type: functional
C=C[C@]1(C)C[C@@H](OC(=O)CSc2ncnc(N3CCOCC3)n2)[C@]2(C)[C@H](C)CC[C@]3(CCC(=O)[C@H]32)[C@@H](C)[C@@H]1O showed an MIC of 0.125 µg/mL (≈ 0.224 µM). Work on C=C[C@]1(C)C[C@@H](OC(=O)CSc2ncnc(N)n2)[C@]2(C)[C@H](C)CC[C@]3(CCC(=O)[C@H]32)[C@@H](C)[C@@H]1O yielded an MIC of 0.125 µg/mL (≈ 0.256 µM). Work on C=C[C@]1(C)C[C@@H](OC(=O)CSc2ncnc(NCC)n2)[C@]2(C)[C@H](C)CC[C@]3(CCC(=O)[C@H]32)[C@@H](C)[C@@H]1O yielded an MIC of 0.013 µg/mL (≈ 0.0252 µM). Work on C=C[C@]1(C)C[C@@H](OC(=O)CSc2ncnc(OC3CCCC3)n2)[C@]2(C)[C@H](C)CC[C@]3(CCC(=O)[C@H]32)[C@@H](C)[C@@H]1O yielded an MIC of 8 µg/mL (≈ 14.3 µM). In the case of C=C[C@]1(C)C[C@@H](OC(=O)CSc2ncnc(OC)n2)[C@]2(C)[C@H](C)CC[C@]3(CCC(=O)[C@H]32)[C@@H](C)[C@@H]1O, the MIC is reported as 0.125 µg/mL (≈ 0.248 µM). Work on C=C[C@]1(C)C[C@@H](OC(=O)CSc2ncnc(NCCNC)n2)[C@]2(C)[C@H](C)CC[C@]3(CCC(=O)[C@H]32)[C@@H](C)[C@@H]1O yielded an MIC of 0.013 µg/mL (≈ 0.0238 µM).

The compounds below were run on Staphylococcus aureus (assay: Antibacterial activity against Staphylococcus aureus ATCC 25923 assessed as bacterial growth inhibition incubated for 18 to 24 hrs by NCCLS based assay). Conditions: time 18-24 hrs.
Type: functional
C=C[C@]1(C)C[C@@H](OC(=O)CSc2ncnc(N3CCOCC3)n2)[C@]2(C)[C@H](C)CC[C@]3(CCC(=O)[C@H]32)[C@@H](C)[C@@H]1O was tested, and the MIC was 0.063 µg/mL (≈ 0.113 µM). Work on C=C[C@]1(C)C[C@@H](OC(=O)CSc2ncnc(N)n2)[C@]2(C)[C@H](C)CC[C@]3(CCC(=O)[C@H]32)[C@@H](C)[C@@H]1O yielded an MIC of 0.125 µg/mL (≈ 0.256 µM). For C=C[C@]1(C)C[C@@H](OC(=O)CSc2ncnc(NCC)n2)[C@]2(C)[C@H](C)CC[C@]3(CCC(=O)[C@H]32)[C@@H](C)[C@@H]1O, the MIC was 0.125 µg/mL (≈ 0.242 µM). Compound C=C[C@]1(C)C[C@@H](OC(=O)CSc2ncnc(OC3CCCC3)n2)[C@]2(C)[C@H](C)CC[C@]3(CCC(=O)[C@H]32)[C@@H](C)[C@@H]1O has an MIC of 4 µg/mL (≈ 7.17 µM). C=C[C@]1(C)C[C@@H](OC(=O)CSc2ncnc(OC)n2)[C@]2(C)[C@H](C)CC[C@]3(CCC(=O)[C@H]32)[C@@H](C)[C@@H]1O showed an MIC of 0.125 µg/mL (≈ 0.248 µM). For C=C[C@]1(C)C[C@@H](OC(=O)CSc2ncnc(NCCNC)n2)[C@]2(C)[C@H](C)CC[C@]3(CCC(=O)[C@H]32)[C@@H](C)[C@@H]1O, the MIC was 0.063 µg/mL (≈ 0.115 µM).

The compounds below were run on Escherichia coli (assay: Antibacterial activity against Escherichia coli CICC 10389 assessed as bacterial growth inhibition incubated for 18 to 24 hrs by NCCLS based assay). Conditions: time 18-24 hrs.
Type: functional
For C=C[C@]1(C)C[C@@H](OC(=O)CSc2ncnc(N3CCOCC3)n2)[C@]2(C)[C@H](C)CC[C@]3(CCC(=O)[C@H]32)[C@@H](C)[C@@H]1O, the MIC was at least 64 µg/mL. C=C[C@]1(C)C[C@@H](OC(=O)CSc2ncnc(N)n2)[C@]2(C)[C@H](C)CC[C@]3(CCC(=O)[C@H]32)[C@@H](C)[C@@H]1O showed an MIC of at least 64 µg/mL. C=C[C@]1(C)C[C@@H](OC(=O)CSc2ncnc(NCC)n2)[C@]2(C)[C@H](C)CC[C@]3(CCC(=O)[C@H]32)[C@@H](C)[C@@H]1O gave an MIC of at least 64 µg/mL. C=C[C@]1(C)C[C@@H](OC(=O)CSc2ncnc(OC3CCCC3)n2)[C@]2(C)[C@H](C)CC[C@]3(CCC(=O)[C@H]32)[C@@H](C)[C@@H]1O was tested, and the MIC was at least 64 µg/mL. C=C[C@]1(C)C[C@@H](OC(=O)CSc2ncnc(OC)n2)[C@]2(C)[C@H](C)CC[C@]3(CCC(=O)[C@H]32)[C@@H](C)[C@@H]1O was tested, and the MIC was at least 64 µg/mL. With C=C[C@]1(C)C[C@@H](OC(=O)CSc2ncnc(NCCNC)n2)[C@]2(C)[C@H](C)CC[C@]3(CCC(=O)[C@H]32)[C@@H](C)[C@@H]1O the MIC was at least 64 µg/mL.

The compounds below were run on Enterococcus faecalis (assay: Antibacterial activity against Enterococcus faecalis assessed as bacterial growth inhibition incubated for 18 to 24 hrs by NCCLS based assay). Conditions: time 18-24 hrs.
Type: functional
With C=C[C@]1(C)C[C@@H](OC(=O)CSc2ncnc(N3CCOCC3)n2)[C@]2(C)[C@H](C)CC[C@]3(CCC(=O)[C@H]32)[C@@H](C)[C@@H]1O the MIC was 32 µg/mL (≈ 57.3 µM). C=C[C@]1(C)C[C@@H](OC(=O)CSc2ncnc(N)n2)[C@]2(C)[C@H](C)CC[C@]3(CCC(=O)[C@H]32)[C@@H](C)[C@@H]1O gave an MIC of 16 µg/mL (≈ 32.7 µM). C=C[C@]1(C)C[C@@H](OC(=O)CSc2ncnc(NCC)n2)[C@]2(C)[C@H](C)CC[C@]3(CCC(=O)[C@H]32)[C@@H](C)[C@@H]1O was tested, and the MIC was 16 µg/mL (≈ 31 µM). With C=C[C@]1(C)C[C@@H](OC(=O)CSc2ncnc(OC3CCCC3)n2)[C@]2(C)[C@H](C)CC[C@]3(CCC(=O)[C@H]32)[C@@H](C)[C@@H]1O the MIC was at least 64 µg/mL. Work on C=C[C@]1(C)C[C@@H](OC(=O)CSc2ncnc(OC)n2)[C@]2(C)[C@H](C)CC[C@]3(CCC(=O)[C@H]32)[C@@H](C)[C@@H]1O yielded an MIC of 32 µg/mL (≈ 63.5 µM). For C=C[C@]1(C)C[C@@H](OC(=O)CSc2ncnc(NCCNC)n2)[C@]2(C)[C@H](C)CC[C@]3(CCC(=O)[C@H]32)[C@@H](C)[C@@H]1O, the MIC was 32 µg/mL (≈ 58.6 µM).

What follows are compounds tested on Staphylococcus aureus (assay: Bactericidal activity against methicillin-resistant Staphylococcus aureus ATCC 29213 incubated for 24 hrs by time kill assay). Conditions: not given.
Type: functional, organism-based
With C=C[C@]1(C)C[C@@H](OC(=O)CSc2ncnc(N3CCOCC3)n2)[C@]2(C)[C@H](C)CC[C@]3(CCC(=O)[C@H]32)[C@@H](C)[C@@H]1O the Activity was “Dose-Dependent Effect”.

What follows are compounds tested on Pasteurella multocida (assay: Antibacterial activity against Pasteurella multocida CVCC 1659 assessed as bacterial growth inhibition incubated for 18 to 24 hrs by NCCLS based assay). Conditions: time 18-24 hrs.
Type: functional
C=C[C@]1(C)C[C@@H](OC(=O)CSc2ncnc(N3CCOCC3)n2)[C@]2(C)[C@H](C)CC[C@]3(CCC(=O)[C@H]32)[C@@H](C)[C@@H]1O gave an MIC of at least 64 µg/mL. C=C[C@]1(C)C[C@@H](OC(=O)CSc2ncnc(N)n2)[C@]2(C)[C@H](C)CC[C@]3(CCC(=O)[C@H]32)[C@@H](C)[C@@H]1O showed an MIC of at least 64 µg/mL. With C=C[C@]1(C)C[C@@H](OC(=O)CSc2ncnc(NCC)n2)[C@]2(C)[C@H](C)CC[C@]3(CCC(=O)[C@H]32)[C@@H](C)[C@@H]1O the MIC was at least 64 µg/mL. C=C[C@]1(C)C[C@@H](OC(=O)CSc2ncnc(OC3CCCC3)n2)[C@]2(C)[C@H](C)CC[C@]3(CCC(=O)[C@H]32)[C@@H](C)[C@@H]1O was tested, and the MIC was at least 64 µg/mL. For C=C[C@]1(C)C[C@@H](OC(=O)CSc2ncnc(OC)n2)[C@]2(C)[C@H](C)CC[C@]3(CCC(=O)[C@H]32)[C@@H](C)[C@@H]1O, the MIC was at least 64 µg/mL. Compound C=C[C@]1(C)C[C@@H](OC(=O)CSc2ncnc(NCCNC)n2)[C@]2(C)[C@H](C)CC[C@]3(CCC(=O)[C@H]32)[C@@H](C)[C@@H]1O has an MIC of at least 64 µg/mL.

What follows are compounds tested on Staphylococcus aureus (assay: Antibacterial activity against methicillin-resistant Staphylococcus aureus BNCC 337371 assessed as bacterial growth inhibition incubated for 18 to 24 hrs by NCCLS based assay). Conditions: time 18-24 hrs.
Type: functional
With C=C[C@]1(C)C[C@@H](OC(=O)CSc2ncnc(N3CCOCC3)n2)[C@]2(C)[C@H](C)CC[C@]3(CCC(=O)[C@H]32)[C@@H](C)[C@@H]1O the MIC was 0.063 µg/mL (≈ 0.113 µM). For C=C[C@]1(C)C[C@@H](OC(=O)CSc2ncnc(N)n2)[C@]2(C)[C@H](C)CC[C@]3(CCC(=O)[C@H]32)[C@@H](C)[C@@H]1O, the MIC was 0.125 µg/mL (≈ 0.256 µM). In the case of C=C[C@]1(C)C[C@@H](OC(=O)CSc2ncnc(NCC)n2)[C@]2(C)[C@H](C)CC[C@]3(CCC(=O)[C@H]32)[C@@H](C)[C@@H]1O, the MIC is reported as 0.125 µg/mL (≈ 0.242 µM). Work on C=C[C@]1(C)C[C@@H](OC(=O)CSc2ncnc(OC3CCCC3)n2)[C@]2(C)[C@H](C)CC[C@]3(CCC(=O)[C@H]32)[C@@H](C)[C@@H]1O yielded an MIC of 16 µg/mL (≈ 28.7 µM). For C=C[C@]1(C)C[C@@H](OC(=O)CSc2ncnc(OC)n2)[C@]2(C)[C@H](C)CC[C@]3(CCC(=O)[C@H]32)[C@@H](C)[C@@H]1O, the MIC was 0.25 µg/mL (≈ 0.496 µM). C=C[C@]1(C)C[C@@H](OC(=O)CSc2ncnc(NCCNC)n2)[C@]2(C)[C@H](C)CC[C@]3(CCC(=O)[C@H]32)[C@@H](C)[C@@H]1O was tested, and the MIC was 0.25 µg/mL (≈ 0.458 µM).

Source: ChEMBL document CHEMBL5634148, “Synthesis and evaluation of novel pleuromutilin derivatives targeting the 50S ribosomal subunit for antibacterial ability” (Eur J Med Chem, 2023)
